In patent US8741834B2, “Dipeptoid prodrugs and the use thereof” (Bayer Intellectual Property GmbH, priority 2008, dated 2014):
Structures can show the parent of a compound that is named as a salt.

Tests used:
[1] = Determination of the solubility in 5% strength aqueous dextrose solution; type: physicochemical; conditions: saline or isotonic, thermodynamic from solid, room temperature
Experimental: The test substance is suspended in 5% strength aqueous dextrose solution. This suspension is shaken at room temperature for 24 h. After ultracentrifugation at 224 000 g for 30 min, the supernatant is diluted with DMSO and analysed by HPLC. A two-point calibration plot of the test compound in DMSO is used for quantification.
Agilent 1100 with DAD (G1315A), quat. Pump (G1311A), autosampler CTC HTS PAL, degasser (G1322A) and column thermostat (G1316A); column: Phenomenex Gemini C18, 5 μm, 50 mm×2 mm; temperature: 40° C.; eluent A: water/phosphoric acid pH 2, eluent B: acetonitrile; flow rate: 0.7 ml/min; gradient: 0-0.5 min 85% A, 15% B; ramp 0.5-3 min 10% A, 90% B; 3-3.5 min 10% A, 90% B; ramp 3.5-4 min 85% A, 15% B; 4-5 min 85% A, 15% B.
Agilent 1100 with DAD (G1315A), quat. pump (G1311A), autosampler CTC HTS PAL, degasser (G1322A) and column thermostat (G1316A); column: VDSoptilab Kromasil 100 C18, 3.5 μm, 60 mm×2.1 mm; temperature: 30° C.; eluent A: water+5 ml of perchloric acid/liter, eluent B: acetonitrile; flow rate: 0.75 ml/min; gradient: 0-0.5 min 98% A, 2% B; ramp 0.5-4.5 min 10% A, 90% B; 4.5-6 min 10% A, 90% B; ramp 6.5-6.7 min 98% A, 2% B; 6.7-7.5 min 98% A, 2% B.

[2] = Stability in buffer at various pH values; type: physicochemical
Experimental: 0.3 mg of the test substance is weighed into a 2 ml HPLC vial and 0.5 ml of acetonitrile or acetonitrile/DMSO (9:1) is added. The substance is dissolved by putting the sample vessel in an ultrasonic bath for about 10 seconds. Then 0.5 ml of the respective buffer solution is added, and the sample is again treated in the ultrasonic bath.
pH 2: 0.03 mol of citric acid, 0.061 mol of sodium chloride and 0.0082 mol of hydrochoric acid ad 1 liter of water;
pH 4: 1 liter of Millipore water is adjusted to pH 4.0 with 1 N hydrochloric acid;
pH 5: 0.096 mol of citric acid and 0.2 mol of sodium hydroxide ad 1 liter of water;
pH 6: 0.06 mol of citric acid and 0.16 mol of sodium hydroxide ad 1 liter of water;
pH 7.4: 90.0 g of sodium chloride, 13.61 g of potassium dihydrogen phosphate and 83.35 g of 1 N sodium hydroxide solution are made up to 1 liter with water; this solution is then further diluted 1:10 with Millipore water.
pH 8: 0.013 mol of borax and 0.021 mol of hydrochloric acid ad 1 liter of water.
5 μl portions of the test solution are analyzed by HPLC for their content of unchanged test substance, and of active substance (A) formed, every hour over a period of 24 hours at 37° C. The percentage areas of the appropriate peaks are used for quantification.
The ratios of the peak areas (F) at the respective time points in relation to the peak areas at the starting time are shown in Table 2 for representative exemplary embodiments: […]

SMILES	solubility thermodynamic at 24 h [1] [µg/mL]	% test substance after 4 h [F(t = 4 h) × 100/F(t = 0 h)] ([2]; pH 4, 37° C.) [%]	% test substance after 24 h [F(t = 24 h) × 100/F(t = 0 h)] ([2]; pH 4, 37° C.) [%]	% test substance after 4 h [F(t = 4 h) × 100/F(t = 0 h)] ([2]; pH 7.4, 37° C.) [%]	% test substance after 24 h [F(t = 24 h) × 100/F(t = 0 h)] ([2]; pH 7.4, 37° C.) [%]	% test substance after 4 h [F(t = 4 h) × 100/F(t = 0 h)] ([2]; pH 5, 37° C.) [%]	% test substance after 24 h [F(t = 24 h) × 100/F(t = 0 h)] ([2]; pH 5, 37° C.) [%]
C[C@H](NC(=O)[C@@H](N)CCN)C(=O)OC[C@H](COc1ccc(-c2c(C#N)c(N)nc(SCc3coc(-c4ccc(Cl)cc4)n3)c2C#N)cc1)OC(=O)[C@H](C)NC(=O)[C@@H](N)CCN [Example 3, (2S)-3-{4-[2-Amino-6-({[2-(4-chlorophenyl)-1,3-oxazol-4-yl]methyl}sulfanyl)-3,5-dicyanopyridin-4-yl]phenoxy}propane-1,2-diyl (2S,2′S)-bis(2-{[(2S)-2,4-diaminobutanoyl]amino}propanoate)tetrahydrochloride]	590	–	–	–	–	–	–
C[C@H](NC(=O)[C@@H](N)CCCN)C(=O)OC[C@H](COc1ccc(-c2c(C#N)c(N)nc(SCc3coc(-c4ccc(Cl)cc4)n3)c2C#N)cc1)OC(=O)[C@H](C)NC(=O)[C@@H](N)CCCN [Example 4, (2S)-3-{4-[2-Amino-6-({[2-(4-chlorophenyl)-1,3-oxazol-4-yl]methyl}sulfanyl)-3,5-dicyanopyridin-4-yl]phenoxy}propane-1,2-diyl (2S,2′S)-bis(2-{[(2S)-2,5-diaminopentanoyl]amino}propanoate)tetrahydrochloride]	860	–	–	–	–	–	–
C[C@H](NC(=O)C[C@H](N)C(=O)O)C(=O)OC[C@H](COc1ccc(-c2c(C#N)c(N)nc(SCc3coc(-c4ccc(Cl)cc4)n3)c2C#N)cc1)OC(=O)[C@H](C)NC(=O)C[C@H](N)C(=O)O [Example 14, (2S,6S,9S,13S,17S)-2,17-Diamino-9-({4-[2-amino-6-({[2-(4-chlorophenyl)-1,3-oxazol-4-yl]methyl}sulfanyl)-3,5-dicyanopyridin-4-yl]phenoxy}methyl)-6,13-dimethyl-4,7,12,15-tetraoxo-8,11-dioxa-5,14-diazaoctadecane-1,18-dioic acid bis(trifluoroacetic acid) salt]	–	96	95	100	91	–	–
CC(C)[C@H](N)C(=O)N[C@@H](C)C(=O)OC[C@H](COc1ccc(-c2c(C#N)c(N)nc(SCc3coc(-c4ccc(Cl)cc4)n3)c2C#N)cc1)OC(=O)[C@H](C)NC(=O)[C@@H](N)C(C)C [Example 26, (2S)-3-{4-[2-Amino-6-({[2-(4-chlorophenyl)-1,3-oxazol-4-yl]methyl}sulfanyl)-3,5-dicyanopyridin-4-yl]phenoxy}propane-1,2-diyl (2S,2′S)-bis(2-{[(2S)-2-amino-3-methylbutanoyl]amino}propanoate)dihydrochloride]	–	100	99	84	34	97	92
CC(C)[C@H](NC(=O)[C@H](C)N)C(=O)OC[C@H](COc1ccc(-c2c(C#N)c(N)nc(SCc3coc(-c4ccc(Cl)cc4)n3)c2C#N)cc1)OC(=O)[C@@H](NC(=O)[C@H](C)N)C(C)C [Example 28, (2S)-3-{4-[2-Amino-6-({[2-(4-chlorophenyl)-1,3-oxazol-4-yl]methyl}sulfanyl)-3,5-dicyanopyridin-4-yl]phenoxy}propane-1,2-diyl(2S,2′S)-bis(2-{[(2S)-2-aminopropanoyl]amino}-3-methylbutanoate)dihydrochloride]	–	100	99	99	88	–	–
C[C@H](N)C(=O)NCCC(=O)OC[C@H](COc1ccc(-c2c(C#N)c(N)nc(SCc3coc(-c4ccc(Cl)cc4)n3)c2C#N)cc1)OC(=O)CCNC(=O)[C@H](C)N [Example 31, (2S)-3-{4-[2-Amino-6-({[2-(4-chlorophenyl)-1,3-oxazol-4-yl]methyl}sulfanyl)-3,5-dicyanopyridin-4-yl]phenoxy}propane-1,2-diyl bis(3-{[(2S)-2-aminopropanoyl)amino}propanoate)dihydrochloride]	220	–	–	–	–	–	–
C[C@H](NC(=O)[C@@H](N)CCCCN)C(=O)OC[C@@H](COc1ccc(-c2c(C#N)c(N)nc(SCc3coc(-c4ccc(Cl)cc4)n3)c2C#N)cc1)OC(=O)[C@H](C)NC(=O)[C@@H](N)CCCCN [Example 34, (2R)-3-{4-[2-Amino-6-({[2-(4-chlorophenyl)-1,3-oxazol-4-yl]methyl}sulfanyl)-3,5-dicyanopyridin-4-yl]phenoxy}propane-1,2-diyl(2S,2′S)-bis(2-{[(2S)-2,6-diaminohexanoyl]amino}propanoate)tetrahydrochloride]	–	100	99	0	0	–	–
C[C@H](NC(=O)[C@@H](N)CCCCN)C(=O)OC[C@H](COc1ccc(-c2c(C#N)c(N)nc(SCc3coc(-c4ccc(Cl)cc4)n3)c2C#N)cc1)OC(=O)[C@H](C)NC(=O)[C@@H](N)CCCCN [Example 35, (2S)-3-{4-[2-Amino-6-({[2-(4-chlorophenyl)-1,3-oxazol-4-yl]methyl}sulfanyl)-3,5-dicyanopyridin-4-yl]phenoxy}propane-1,2-diyl(2S,2′S)-bis(2-{[(2S)-2,6-diaminohexanoyl)amino}propanoate)tetrahydrochloride]	610	98	94	2	0	–	–
C[C@@H](O)[C@H](NC(=O)CN)C(=O)OC[C@H](COc1ccc(-c2c(C#N)c(N)nc(SCc3coc(-c4ccc(Cl)cc4)n3)c2C#N)cc1)OC(=O)[C@@H](NC(=O)CN)[C@@H](C)O [Example 36, (2S)-3-{4-[2-Amino-6-({[2-(4-chlorophenyl)-1,3-oxazol-4-yl]methyl}sulfanyl)-3,5-dicyanopyridin-4-yl]phenoxy}propane-1,2-diyl (2S,3R,2′S,3′R)-bis{2-[(aminoacetyl)amino]-3-hydroxybutanoate}bis(trifluoroacetic acid) salt]	700	–	–	–	–	–	–
C[C@H](N)C(=O)N[C@H](C(=O)OC[C@H](COc1ccc(-c2c(C#N)c(N)nc(SCc3coc(-c4ccc(Cl)cc4)n3)c2C#N)cc1)OC(=O)[C@@H](NC(=O)[C@H](C)N)[C@@H](C)O)[C@@H](C)O [Example 38, (2S)-3-{4-[2-Amino-6-({[2-(4-chlorophenyl)-1,3-oxazol-4-yl]methyl}sulfanyl)-3,5-dicyanopyridin-4-yl]phenoxy}propane-1,2-diyl (2S,3R,2′S,3′R)-bis(2-{[(2S)-2-aminopropanoyl]amino}-3-hydroxybutanoate)bis(trifluoroacetic acid) salt]	750	–	–	–	–	–	–
C[C@@H](O)[C@H](N)C(=O)NCCC(=O)OC[C@H](COc1ccc(-c2c(C#N)c(N)nc(SCc3coc(-c4ccc(Cl)cc4)n3)c2C#N)cc1)OC(=O)CCNC(=O)[C@@H](N)[C@@H](C)O [Example 39, (2S)-3-{4-[2-Amino-6-({[2-(4-chlorophenyl)-1,3-oxazol-4-yl]methyl}sulfanyl)-3,5-dicyanopyridin-4-yl]phenoxy}propane-1,2-diyl bis(3-{[(2S,3R)-2-amino-3-hydroxybutanoyl]amino}propanoate)bis(trifluoroacetic acid) salt]	490	–	–	–	–	–	–
